Assay results reported in PubChem BioAssay (NCI).
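Tested at 5 concentrations; 48 h exposure; 96-well plates; endpoints linearly interpolated, else capped at highest concentration. The concentration for 50% growth inhibition is given as GI50. TGI denotes the concentration required for complete inhibition of growth.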

Columns and labels:
Test in all cases: DTP human tumour cell line panel, 48 h
[1] = tested on: HOP-92 NSCLC
[2] = tested on: MOLT-4 leukemia
[3] = tested on: 786-0 renal
[4] = tested on: NCI-H460 lung
[5] = tested on: HL-60(TB) leukemia
[6] = tested on: U251 CNS
[7] = tested on: TK-10 renal
[8] = tested on: OVCAR-3 ovarian
[9] = tested on: OVCAR-8 ovarian
[10] = tested on: NCI-H522 lung
[11] = tested on: CAKI-1 renal
[12] = tested on: SK-MEL-2 melanoma
[13] = tested on: PC-3 prostate
[14] = tested on: HT29 colon
[15] = tested on: RXF 393 renal
[16] = tested on: MDA-MB-435
[17] = tested on: OVCAR-5 ovarian
[18] = tested on: IGROV1 ovarian
[19] = tested on: NCI/ADR-RES ovarian
[20] = tested on: SK-MEL-28 melanoma
[21] = tested on: HOP-62 NSCLC
[22] = tested on: RPMI-8226 leukemia
[23] = tested on: SNB-75 CNS
[24] = tested on: NCI-H226 lung
[25] = tested on: HCT-116 colon
[26] = tested on: SN12C renal
[27] = tested on: KM12 colon
[28] = tested on: SF-539 CNS
[29] = tested on: CCRF-CEM leukemia
[30] = tested on: SK-OV-3 ovarian
[31] = tested on: UACC-62 melanoma
[32] = tested on: COLO 205 colon
[33] = tested on: UO-31 renal
[34] = tested on: BT-549 breast
[35] = tested on: LOX IMVI melanoma
[36] = tested on: SNB-19 CNS
[37] = tested on: UACC-257 melanoma
[38] = tested on: SF-295 CNS
[39] = tested on: ACHN renal
[40] = tested on: EKVX NSCLC
[41] = tested on: SR leukemia
[42] = tested on: DU-145 prostate
[43] = tested on: MDA-MB-231 breast
[44] = tested on: HS 578T breast
[45] = tested on: HCC-2998 colon
[46] = tested on: K-562 leukemia
[47] = tested on: SF-268 CNS
[48] = tested on: SW-620 colon
[49] = tested on: T-47D breast
[50] = tested on: M14 melanoma
[51] = tested on: HCT-15 colon
[52] = tested on: SK-MEL-5 melanoma
[53] = tested on: A498 renal
[54] = tested on: OVCAR-4 ovarian
[55] = tested on: MCF7 breast
[56] = tested on: A549 NSCLC

Question: Which results are given for `Cc1nc2ccccn2c1NC(=O)NNC(=S)Nc1ccc(Cl)cc1`?
Answer: GI50 [1]: > 100 µM; TGI [1]: > 100 µM; GI50 [2]: > 100 µM; TGI [2]: > 100 µM; GI50 [3]: > 100 µM; TGI [3]: > 100 µM; GI50 [4]: > 100 µM; TGI [4]: > 100 µM; GI50 [5]: > 100 µM; TGI [5]: > 100 µM; GI50 [6]: > 100 µM; TGI [6]: > 100 µM; GI50 [7]: > 100 µM; TGI [7]: > 100 µM; GI50 [8]: > 100 µM; TGI [8]: > 100 µM; GI50 [9]: > 100 µM; TGI [9]: > 100 µM; GI50 [10]: > 100 µM; TGI [10]: > 100 µM; GI50 [11]: > 100 µM; TGI [11]: > 100 µM; GI50 [12]: > 100 µM; TGI [12]: > 100 µM; GI50 [13]: > 100 µM; TGI [13]: > 100 µM; GI50 [14]: > 100 µM; TGI [14]: > 100 µM; GI50 [15]: > 100 µM; TGI [15]: > 100 µM; GI50 [16]: > 100 µM; TGI [16]: > 100 µM; GI50 [17]: > 100 µM; TGI [17]: > 100 µM; GI50 [18]: > 100 µM; TGI [18]: > 100 µM; GI50 [19]: > 100 µM; TGI [19]: > 100 µM; GI50 [20]: > 100 µM; TGI [20]: > 100 µM; GI50 [21]: > 100 µM; TGI [21]: > 100 µM; GI50 [22]: > 100 µM; TGI [22]: > 100 µM; GI50 [23]: > 100 µM; TGI [23]: > 100 µM; GI50 [24]: > 100 µM; TGI [24]: > 100 µM; GI50 [25]: > 100 µM; TGI [25]: > 100 µM; GI50 [26]: > 100 µM; TGI [26]: > 100 µM; GI50 [27]: > 100 µM; TGI [27]: > 100 µM; GI50 [28]: > 100 µM; TGI [28]: > 100 µM; GI50 [29]: > 100 µM; TGI [29]: > 100 µM; GI50 [30]: > 100 µM; TGI [30]: > 100 µM; GI50 [31]: > 100 µM; TGI [31]: > 100 µM; GI50 [32]: > 100 µM; TGI [32]: > 100 µM; GI50 [33]: > 100 µM; TGI [33]: > 100 µM; GI50 [34]: > 100 µM; TGI [34]: > 100 µM; GI50 [35]: > 100 µM; TGI [35]: > 100 µM; GI50 [36]: > 100 µM; TGI [36]: > 100 µM; GI50 [37]: > 100 µM; TGI [37]: > 100 µM; GI50 [38]: > 100 µM; TGI [38]: > 100 µM; GI50 [39]: > 100 µM; TGI [39]: > 100 µM; GI50 [40]: > 100 µM; TGI [40]: > 100 µM; GI50 [41]: 95.7 µM; TGI [41]: > 100 µM; GI50 [42]: > 100 µM; TGI [42]: > 100 µM; GI50 [43]: 67.8 µM; TGI [43]: > 100 µM; GI50 [44]: > 100 µM; TGI [44]: > 100 µM; GI50 [45]: > 100 µM; TGI [45]: > 100 µM; GI50 [46]: > 100 µM; TGI [46]: > 100 µM; GI50 [47]: > 100 µM; TGI [47]: > 100 µM; GI50 [48]: > 100 µM; TGI [48]: > 100 µM; GI50 [49]: > 100 µM; TGI [49]: > 100 µM; GI50 [50]: > 100 µM; TGI [50]: > 100 µM; GI50 [51]: > 100 µM; TGI [51]: > 100 µM; GI50 [52]: > 100 µM; TGI [52]: > 100 µM; GI50 [53]: > 100 µM; TGI [53]: > 100 µM; GI50 [54]: > 100 µM; TGI [54]: > 100 µM; GI50 [55]: > 100 µM; TGI [55]: > 100 µM; GI50 [56]: > 100 µM; TGI [56]: > 100 µM
